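Assay format: 96-well plates, 48-hour exposure. TGI: concentration producing complete growth inhibition.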
Assays:
Test in all cases: NCI tumour cell line growth inhibition, 48 h
KM20L2 colon = test system: KM20L2 colon
P388 leukemia = test system: P388 leukemia
SF-268 CNS = test system: SF-268 CNS
NCI-H23 lung = test system: NCI-H23 lung
SNB-19 CNS = test system: SNB-19 CNS
NCI-H226 lung = test system: NCI-H226 lung
DLD-1 colon = test system: DLD-1 colon
COLO 205 colon = test system: COLO 205 colon
OVCAR-8 ovarian = test system: OVCAR-8 ovarian
DMS 114 small cell lung = test system: DMS 114 small cell lung
OVCAR-4 ovarian = test system: OVCAR-4 ovarian
U251 CNS = test system: U251 CNS
KM12 colon = test system: KM12 colon
OVCAR-5 ovarian = test system: OVCAR-5 ovarian
DMS 273 small cell lung = test system: DMS 273 small cell lung
SN12K1 renal = test system: SN12K1 renal
HCT-116 colon = test system: HCT-116 colon
HCT-15 colon = test system: HCT-15 colon
A498 renal = test system: A498 renal
UACC-257 melanoma = test system: UACC-257 melanoma
RXF 393 renal = test system: RXF 393 renal
SW-620 colon = test system: SW-620 colon
SN12C renal = test system: SN12C renal
SF-295 CNS = test system: SF-295 CNS
MOLT-4 leukemia = test system: MOLT-4 leukemia
LOX IMVI melanoma = test system: LOX IMVI melanoma
NCI-H460 lung = test system: NCI-H460 lung
M19-MEL melanoma = test system: M19-MEL melanoma
UO-31 renal = test system: UO-31 renal
SNB-75 CNS = test system: SNB-75 CNS
MCF7 breast = test system: MCF7 breast
HT29 colon = test system: HT29 colon
HOP-18 NSCLC = test system: HOP-18 NSCLC
SK-MEL-2 melanoma = test system: SK-MEL-2 melanoma
A549 NSCLC = test system: A549 NSCLC
SK-MEL-28 melanoma = test system: SK-MEL-28 melanoma
SK-OV-3 ovarian = test system: SK-OV-3 ovarian
OVCAR-3 ovarian = test system: OVCAR-3 ovarian
HL-60(TB) leukemia = test system: HL-60(TB) leukemia
HCC-2998 colon = test system: HCC-2998 colon
RPMI-8226 leukemia = test system: RPMI-8226 leukemia
UACC-62 melanoma = test system: UACC-62 melanoma
CCRF-CEM leukemia = test system: CCRF-CEM leukemia
IGROV1 ovarian = test system: IGROV1 ovarian
SNB-78 CNS = test system: SNB-78 CNS
XF 498 CNS = test system: XF 498 CNS
HOP-62 NSCLC = test system: HOP-62 NSCLC
SK-MEL-5 melanoma = test system: SK-MEL-5 melanoma
NCI/ADR-RES ovarian = test system: NCI/ADR-RES ovarian
K-562 leukemia = test system: K-562 leukemia
MALME-3M melanoma = test system: MALME-3M melanoma
M14 melanoma = test system: M14 melanoma
SF-539 CNS = test system: SF-539 CNS
MDA-MB-231 breast = test system: MDA-MB-231 breast
HS 578T breast = test system: HS 578T breast
BT-549 breast = test system: BT-549 breast
MDA-MB-435 = test system: MDA-MB-435
RXF-631 renal = test system: RXF-631 renal
CAKI-1 renal = test system: CAKI-1 renal
786-0 renal = test system: 786-0 renal
HOP-92 NSCLC = test system: HOP-92 NSCLC
EKVX NSCLC = test system: EKVX NSCLC
ACHN renal = test system: ACHN renal
PC-3 prostate = test system: PC-3 prostate
TK-10 renal = test system: TK-10 renal
MDA-N = test system: MDA-N
NCI-H522 lung = test system: NCI-H522 lung
T-47D breast = test system: T-47D breast
DU-145 prostate = test system: DU-145 prostate
LXFL 529 NSCLC = test system: LXFL 529 NSCLC
SR leukemia = test system: SR leukemia

CCOCCOc1ccc(OCCOCC)cc1
TGI (KM20L2 colon): 47.2 µM | TGI (P388 leukemia): > 100 µM | TGI (SF-268 CNS): 36 µM | TGI (NCI-H23 lung): > 100 µM | TGI (SNB-19 CNS): > 100 µM | TGI (NCI-H226 lung): > 73.1 µM | TGI (DLD-1 colon): 28.2 µM | TGI (COLO 205 colon): 33.3 µM | TGI (OVCAR-8 ovarian): 35.4 µM | TGI (DMS 114 small cell lung): 17.1 µM | TGI (OVCAR-4 ovarian): 20.7 µM | TGI (U251 CNS): > 100 µM | TGI (KM12 colon): > 100 µM | TGI (OVCAR-5 ovarian): > 100 µM | TGI (DMS 273 small cell lung): > 58.4 µM | TGI (SN12K1 renal): 31.6 µM | TGI (HCT-116 colon): 33.4 µM | TGI (HCT-15 colon): 40.3 µM | TGI (A498 renal): > 61.8 µM | TGI (UACC-257 melanoma): 32.3 µM | TGI (RXF 393 renal): 33 µM | TGI (SW-620 colon): 40.1 µM | TGI (SN12C renal): 31.8 µM | TGI (SF-295 CNS): > 57.2 µM | TGI (MOLT-4 leukemia): > 43 µM | TGI (LOX IMVI melanoma): 33.8 µM | TGI (NCI-H460 lung): > 73.7 µM | TGI (M19-MEL melanoma): > 62.5 µM | TGI (UO-31 renal): 26.9 µM | TGI (SNB-75 CNS): 52.8 µM | TGI (MCF7 breast): 32.9 µM | TGI (HT29 colon): 38.9 µM | TGI (HOP-18 NSCLC): 61.3 µM | TGI (SK-MEL-2 melanoma): > 63.7 µM | TGI (A549 NSCLC): > 100 µM | TGI (SK-MEL-28 melanoma): 40.8 µM | TGI (SK-OV-3 ovarian): > 100 µM | TGI (OVCAR-3 ovarian): > 49.3 µM | TGI (HL-60(TB) leukemia): 12.7 µM | TGI (HCC-2998 colon): > 100 µM | TGI (RPMI-8226 leukemia): 26.4 µM | TGI (UACC-62 melanoma): 38.7 µM | TGI (CCRF-CEM leukemia): 9.84 µM | TGI (IGROV1 ovarian): 38 µM | TGI (SNB-78 CNS): > 57.7 µM | TGI (XF 498 CNS): 30.1 µM | TGI (HOP-62 NSCLC): > 100 µM | TGI (SK-MEL-5 melanoma): > 54 µM | TGI (NCI/ADR-RES ovarian): 39.3 µM | TGI (K-562 leukemia): 24.2 µM | TGI (MALME-3M melanoma): 45.8 µM

O=C1CCC(C(=O)O)C2=C1CCCC2 (stereo not given)
TGI (M14 melanoma): > 100 µM | TGI (KM20L2 colon): > 100 µM | TGI (SF-268 CNS): > 100 µM | TGI (NCI-H23 lung): > 100 µM | TGI (SF-539 CNS): > 100 µM | TGI (SNB-19 CNS): > 100 µM | TGI (MDA-MB-231 breast): > 100 µM | TGI (NCI-H226 lung): > 21.5 µM | TGI (HS 578T breast): > 100 µM | TGI (DLD-1 colon): > 100 µM | TGI (COLO 205 colon): > 100 µM | TGI (BT-549 breast): > 100 µM | TGI (OVCAR-8 ovarian): > 100 µM | TGI (MDA-MB-435): > 100 µM | TGI (DMS 114 small cell lung): > 100 µM | TGI (OVCAR-4 ovarian): > 100 µM | TGI (U251 CNS): > 29.8 µM | TGI (KM12 colon): > 100 µM | TGI (OVCAR-5 ovarian): > 100 µM | TGI (RXF-631 renal): > 100 µM | TGI (DMS 273 small cell lung): > 100 µM | TGI (CAKI-1 renal): > 100 µM | TGI (HCT-116 colon): > 100 µM | TGI (786-0 renal): > 100 µM | TGI (HCT-15 colon): > 100 µM | TGI (A498 renal): > 100 µM | TGI (UACC-257 melanoma): > 100 µM | TGI (RXF 393 renal): > 100 µM | TGI (HOP-92 NSCLC): > 100 µM | TGI (SW-620 colon): > 100 µM | TGI (EKVX NSCLC): > 100 µM | TGI (SN12C renal): > 100 µM | TGI (SF-295 CNS): > 100 µM | TGI (MOLT-4 leukemia): > 100 µM | TGI (LOX IMVI melanoma): > 100 µM | TGI (NCI-H460 lung): > 100 µM | TGI (M19-MEL melanoma): > 100 µM | TGI (ACHN renal): > 100 µM | TGI (UO-31 renal): > 100 µM | TGI (SNB-75 CNS): > 100 µM | TGI (MCF7 breast): > 100 µM | TGI (HT29 colon): > 100 µM | TGI (HOP-18 NSCLC): > 100 µM | TGI (PC-3 prostate): > 100 µM | TGI (SK-MEL-2 melanoma): > 100 µM | TGI (TK-10 renal): > 100 µM | TGI (A549 NSCLC): > 100 µM | TGI (SK-MEL-28 melanoma): > 100 µM | TGI (SK-OV-3 ovarian): > 100 µM | TGI (OVCAR-3 ovarian): > 100 µM | TGI (MDA-N): > 100 µM | TGI (HL-60(TB) leukemia): > 100 µM | TGI (HCC-2998 colon): > 100 µM | TGI (RPMI-8226 leukemia): > 100 µM | TGI (UACC-62 melanoma): > 100 µM | TGI (CCRF-CEM leukemia): > 100 µM | TGI (IGROV1 ovarian): > 100 µM | TGI (SNB-78 CNS): > 100 µM | TGI (XF 498 CNS): > 100 µM | TGI (HOP-62 NSCLC): > 100 µM | TGI (NCI-H522 lung): > 100 µM | TGI (SK-MEL-5 melanoma): > 100 µM | TGI (NCI/ADR-RES ovarian): > 100 µM | TGI (T-47D breast): > 100 µM | TGI (K-562 leukemia): > 100 µM | TGI (DU-145 prostate): > 100 µM | TGI (MALME-3M melanoma): > 100 µM | TGI (LXFL 529 NSCLC): > 100 µM | TGI (SR leukemia): > 100 µM
